Measurements from paper PMC5450539, “Anti-Inflammatory Activity and Structure-Activity Relationships of Brominated Indoles from a Marine Mollusc” (Marine Drugs, 2017).
Structures can show the parent of a compound that is named as a salt. Where two headings read alike, the source gives them in different places.

Key:
NO production = system: NO production; set-up: method as in Matheus et al. [37]; conditions: ref Matheus et al. [37]; cited from earlier work
PGE2 = system: PGE2; set-up: method as in Matheus et al. [37]; conditions: ref Matheus et al. [37]; cited from earlier work
[1] = system: 3T3 ccl-92 mouse fibroblast; assay: Crystal violet cytotoxicity assay, 3T3 ccl-92; type: cell-based; conditions: 24 h incubation; max test concentration 50 µg/mL; > = <50% reduction in viability at max
Experimental: (§1) All extract/compounds were dissolved in DMSO and tested at 5 different concentrations of 50, 10, 2, 0.4, and 0.08 μg/mL for all anti-inflammatory assays unless otherwise noted. The final concentration of DMSO was 0.35% v/v for extracts and compounds. All samples were tested in triplicate at each concentration and each assay was independently repeated at least 3 times. The concentrations used for the cytotoxicity assays were 50, 25, 12.5, 6.25. and 3.125 μg/mL.
(§2) To check for cytotoxicity of the extracts and compounds against RAW264.7 mouse macrophage and 3T3 ccl-92 mouse fibroblast cell lines, the crystal violet cytotoxicity test was used according to the published protocol. In brief, RAW264.7 cells were seeded with a density of 2 × 10^4 cells/well in a 96-well plate and then incubated for 18–24 h. The following day the compounds/extracts were added and then incubated for 24 h before the media was aspirated and the cells washed twice in a gentle stream of water. After removing the water, 50 µL of 0.5% crystal violet staining solution were added and the cells were incubated for 20 min at room temperature. The plate was then washed 4 times with water and air dried for 2 h. Finally, 200 μL of methanol was added to each well and incubated for 20 min at room temperature on a rocker. This was followed by measuring the optical density at 570 nm with a plate reader Anthos Zenyth 200rt (Anthos Labtec Instruments, Heerhugowaard, The Netherlands). Chlorambucil was used as a positive control.

[2] = system: nitric oxide (NO) production; assay: NO inhibition assay (Greiss) in LPS-stimulated RAW264.7 macrophages; type: cell-based, mouse; conditions: for IC50: read-out: NO IC50; for NO inhibitory activity (in words): LPS-stimulated RAW264.7, up to 50 µg/mL; for lowest concentration with significant inhibition of NO production: significant vs DMSO control; for reduction of NO production: 50 µg/mL (maximum test concentration), relative to DMSO control
Experimental: RAW264.7 macrophages were incubated 1 h with extracts/compounds prior to the addition of LPS. […] Then, 20 h after the addition of LPS, the supernatant was collected. […] The plates were incubated for 15–20 min in the dark, then read at 550 nm wavelength on an Anthos Zenyth 200rt (Anthos Labtec Instruments). Sodium nitrite was used to prepare a standard curve to quantify the nitrite from the absorbance readings in this assay. All data were processed in Microsoft Office Excel 2013 (MS) first to obtain descriptive statistics. One-way Analysis of Variance (ANOVA) followed by Dunnett’s multiple comparisons test was performed using GraphPad Prism version 6.00 for Windows (GraphPad Software, La Jolla, CA, USA, www.graphpad.com), with p < 0.05 considered significant.

TNFα production = assay: TNF-alpha inhibition assay (ELISA) in LPS-stimulated RAW264.7 macrophages; type: cell-based, mouse; conditions: for IC50: max test concentration 50 µg/mL, read-out: TNFα IC50
Experimental: The amount of TNFα was quantified in cell culture media using murine TNFα ELISA kits (BD bioscience). In brief, the RAW264.7 mouse macrophages (6 × 10^5 cells/mL) were stimulated with LPS (100 ng/mL) 1 h after treatment with several concentrations of extracts (0.08–50 μg/mL). After 18 h, the supernatant was collected and TNFα production was measured by reading the absorbance at 450 nm wavelength on an Anthos Zenyth 200rt microplate reader (Anthos Labtech Instruments). Dexamethasone at a concentration of 2.5 μM was used as a positive control, with a negative control of 0.35% DMSO.
(§3) All data were processed in Microsoft Office Excel 2013 (MS) first to obtain descriptive statistics. One-way Analysis of Variance (ANOVA) followed by Dunnett’s multiple comparisons test was performed using GraphPad Prism version 6.00 for Windows (GraphPad Software, La Jolla, CA, USA, www.graphpad.com), with p < 0.05 considered significant. The inhibitory concentration responsible for a 50% reduction in cell viability or production of inflammatory markers (IC50) was calculated using the regression analysis, Probit in SPSS v21.

[3] = Crystal violet cytotoxicity assay, RAW264.7; conditions: mouse
Experimental: as §1, §2

[4] = system: RAW264.7 mouse macrophage; assay: Crystal violet cytotoxicity assay, RAW264.7; conditions: 24 h incubation; max test concentration 50 µg/mL; > = <50% reduction in viability at max, ~ = close to 50%
Experimental: as §1, §2

PGE2 production = assay: PGE2 inhibition assay (ELISA) in calcium ionophore-stimulated 3T3 ccl-92 fibroblasts; type: cell-based, mouse; conditions: for IC50: calcium ionophore-stimulated 3T3 ccl-92, max test concentration 50 µg/mL
Experimental: The levels of PGE2 were measured in cell media using a Cayman Prostaglandin E2 Express ELISA Kit (Cayman Chemical, Ann Arbor, MI, USA) according to the manufacturer’s instructions. In brief, the 3T3 ccl-92 fibroblasts (1 × 10^5 cells/mL) were grown overnight in a 96-well plate and then treated with extracts/compounds 3 h before being stimulated with Calcium ionophore (50 μM). After 20 min, supernatants were collected and PGE2 production was quantified by measuring the absorbance at 405 nm wavelength with an Anthos Zenyth 200rt (Anthos Labtech Instruments). Indomethacin at a concentration of 100 μM was used as a positive control and ~0.5% DMSO as a negative control.
as §3

NFκB translocation = assay: Assessment of NFκB translocation in LPS-stimulated RAW264.7; type: cell-based; conditions: Mus musculus, RAW264.7, 40 µg/mL, LPS-stimulated RAW264.7, relative to DMSO + LPS
Experimental: This assay was performed according to the published protocol in Olivera et al.. RAW264.7 mouse macrophages were seeded at 400,000 cells/well in 800 μL in 4-well chambered slides and incubated overnight. The cells were then incubated with the test samples (40 μg/mL HBG extract, 6-bromoisatin, or 6-bromoindole) for 1 h prior to stimulation with LPS (700 ng/mL) for 30 min. After stimulation, the cells were washed with PBS and fixed with 3.7% paraformaldehyde for 15 min. […] The cells were washed with PBS and incubated with rabbit anti-p65 NFκB antibody (1:500) and goat anti-mouse IκB (1:500) overnight at 4 °C. The following day, the cells were washed again three times with PBS and incubated for 1 h with goat-anti-rabbit IgG conjugated with Alexa Fluor 594 (1:1000) and donkey anti-mouse IgG conjugated with Alexa fluor 488 (1:1000) at room temperature. Finally, the cells were washed with PBS then mounted with Prolong mounting media containing DAPI before visualising using the Olympus Flouview FVi10 confocal microscope (Olympus, Tokyo, Japan). Using ImageJ (v1.50i, National Institutes of Health, Bethesda, MD, USA), an outline was drawn around each nucleus by adjusting the colour threshold of DAPI. Mean fluorescence inside the nucleus was measured, along with several adjacent background readings. The total corrected cellular fluorescence (TCCF) was calculated by applying the equation TCCF = integrated density − (area of selected cell × mean fluorescence of background readings). This TCCF was then used to calculate the %inhibition of the NFκB translocation against the positive control where the cells were treated with LPS in the presence of the Vehicle (0.35% DMSO v/v) in Microsoft Office Excel 2013 (Redmond, WA, USA).

[5] = Crystal violet cytotoxicity assay, 3T3 ccl-92; type: cell-based, mouse; conditions: mouse, 3T3 ccl-92 fibroblast cells; 3T3, 50 µg/mL, 24 h incubation, compared to DMSO-treated wells
Experimental: as §1, §2

[6] = Mus musculus, RAW264.7, LPS-stimulated RAW264.7, max test concentration 50 µg/mL
[7] = Mus musculus, RAW264.7, LPS-stimulated RAW264.7

SMILES: O=C1Nc2cccc(Br)c2C1=O [4-bromoisatin]
- inhibition of NO production (in words) (NO production): did not inhibit
- inhibition of PGE2 (in words) (PGE2): did not inhibit

SMILES: O=C1Nc2ccc(Br)cc2C1=O [5-bromoisatin]
- Cytotoxicity 3T3 ccl-92 (test concentration which causes toxicity) [1]: NA (not active at maximum test concentration 50 µg/mL)
- IC50 ([2]; LPS-stimulated RAW264.7, max test concentration 50 µg/mL, listed as 5-bromoisatin (9)): 152 µM
- IC50 [2, 6]: 152 µM
- IC50 [2, 7]: 34.3 µg/mL
- IC50 (TNFα production; LPS-stimulated RAW264.7, listed as 5-bromoisatin (9)): 38 µM
- IC50 (TNFα production; [7]): 38.1 µM
- inhibition at 50 µg/mL (TNFα production; Mus musculus, RAW264.7, 50 μg/mL): 100%
- viability at 24 h, 50 µg/mL [3]: 55%
- Cytotoxicity RAW264.7 (test concentration which causes toxicity) [4]: ~221.21 µM

SMILES: O=C1C(=C2Nc3cc(Br)ccc3C2=O)Nc2cc(Br)ccc21 [6,6 dibromoindigo]
- Cytotoxicity 3T3 ccl-92 (test concentration which causes toxicity) [1]: NA (not active at maximum test concentration 50 µg/mL)
- NO inhibitory activity (in words) [2]: minimal inhibitory activity
- IC50 [2, 6]: > 50 µg/mL

SMILES: O=C1Nc2cc(Br)ccc2C1=C1Nc2ccccc2C1=O [6-bromoindirubin]
- NO inhibitory activity (in words) [2]: minimal inhibitory activity
- IC50 [2, 6]: > 50 µg/mL
- viability at 24 h, 50 µg/mL [3]: 56.2%

SMILES: Brc1ccc2cc[nH]c2c1 [6-bromoindole]
- IC50 (PGE2 production; Mus musculus, Fibroblast): 223 µM
- IC50 (PGE2 production; listed as 6-bromoindole (11)): 223 µM
- lowest concentration with significant PGE2 inhibition (PGE2 production; p < 0.05 vs solvent control): 0.08 µg/mL
- inhibition at 40 µg/mL (NFκB translocation): 60.7%
- Cytotoxicity 3T3 ccl-92 (test concentration which causes toxicity) [1]: NA (not active at maximum test concentration 50 µg/mL)
- IC50 [2, 6]: 187 µM
- IC50 (TNFα production; LPS-stimulated RAW264.7, listed as 6-bromoindole (11)): 150 µM
- IC50 (TNFα production; [7]): 150 µM
- viability at 24 h, 50 µg/mL [3]: 66.4%
- Cytotoxicity RAW264.7 (test concentration which causes toxicity) [4]: >255.04 µM

SMILES: O=C1Nc2cc(Br)ccc2C1=O [6-bromoisatin]
- IC50 (PGE2 production; Mus musculus, Fibroblast): > 221 µM
- inhibition at 0.08 µg/mL (PGE2 production; Mus musculus, Fibroblast, 0.08 µg/mL): 10%
- inhibition at 50 µg/mL (PGE2 production; Mus musculus, Fibroblast, 50 μg/mL): 40%
- inhibition at 40 µg/mL (NFκB translocation): 63.7%
- Cytotoxicity 3T3 ccl-92 (test concentration which causes toxicity) [1]: NA (not active at maximum test concentration 50 µg/mL)
- IC50 [2, 6]: 120 µM
- IC50 [2, 7]: 27.1 µg/mL
- lowest concentration with significant inhibition of NO production [2]: 0.4 µg/mL
- IC50 (TNFα production; LPS-stimulated RAW264.7, listed as 6-bromoisatin (4)): 123 µM
- IC50 (TNFα production; [7]): 123 µM

SMILES: O=C1Nc2c(Br)cccc2C1=O [7-bromoisatin]
- viability at 24 h, 50 µg/mL [5]: 80.9%
- Cytotoxicity 3T3 ccl-92 (test concentration which causes toxicity) [1]: >221.21 µM
- reduction of NO production [2]: less than 5%
- IC50 [2, 6]: > 50 µg/mL
- viability at 24 h, 50 µg/mL [3]: 81.9%

SMILES: O=C1Nc2ccc(I)cc2C1=O [Compound 5-iodoisatin, 5-iodoisatin]
- inhibition of NO production (in words) (NO production): did not inhibit
- inhibition of PGE2 (in words) (PGE2): did not inhibit

SMILES: CSc1[nH]c2cc(Br)ccc2c1OS(=O)(=O)O [Tyrindoxyl sulfate, tyrindoxyl sulfate]
- Cytotoxicity 3T3 ccl-92 (test concentration which causes toxicity) [1]: NA (not active at maximum test concentration 50 µg/mL)
- IC50 [2, 6]: > 50 µg/mL

SMILES: C[C@@H]1C[C@H]2[C@@H]3CCC4=CC(=O)C=C[C@]4(C)[C@@]3(F)[C@@H](O)C[C@]2(C)[C@@]1(O)C(=O)CO [dexamethasone, reference compound]
- inhibition at 2.5 µM ([2]; Mus musculus, RAW264.7, working concentration 2.5 µM, positive control): 56%

SMILES: O=C1Nc2ccccc2/C1=C1/Nc2ccccc2C1=O [indirubin]
- Cytotoxicity 3T3 ccl-92 (test concentration which causes toxicity) [1]: NA (not active at maximum test concentration 50 µg/mL)
- NO inhibitory activity (in words) [2]: minimal inhibitory activity
- IC50 [2, 6]: > 50 µg/mL

SMILES: CSC1=Nc2cc(Br)ccc2C1=O [tyrindoleninone]
- Cytotoxicity 3T3 ccl-92 (test concentration which causes toxicity) [1]: NA (not active at maximum test concentration 50 µg/mL)
- IC50 [2, 6]: 103 µM
- IC50 [2, 7]: 26.4 µg/mL
- lowest concentration with significant inhibition of NO production [2]: 0.08 µg/mL
- IC50 (TNFα production; LPS-stimulated RAW264.7, listed as Tyrindoleninone (3)): 157 µM
- IC50 (TNFα production; [7]): 157 µM
- viability at 24 h, 50 µg/mL [3]: 84.1%

SMILES: CSC1(C2(SC)Nc3cc(Br)ccc3C2=O)Nc2cc(Br)ccc2C1=O (stereo not shown) [tyriverdin]
- Cytotoxicity 3T3 ccl-92 (test concentration which causes toxicity) [1]: NA (not active at maximum test concentration 50 µg/mL)
- reduction of NO production [2]: less than 50%
- IC50 [2, 6]: > 97.2 µM
- lowest concentration with significant inhibition of NO production [2]: 10 µg/mL
